In patent US8785655B2, “Ionic liquid solvents” (Dublin City University, priority 2009, dated 2014):

Legend:
[1] = system: Staphylococcus epidermidis H 6966/08; test: Screen against bacteria, MIC/IC80; type: cell-based; details: SE
[2] = system: Candida krusei ATCC 6258; test: In vitro antifungal activity, MIC by microdilution (NCCLS M27-A)
[3] = system: Klebsiella pneumoniae D 11750/08; test: Screen against bacteria, MIC/IC80; type: cell-based; details: KP
[4] = system: Candida albicans ATCC 44859; test: In vitro antifungal activity, MIC by microdilution (NCCLS M27-A)
[5] = system: Escherichia coli CCM4517; test: Screen against bacteria, MIC/IC80; type: cell-based; details: EC
[6] = system: Candida lusitaniae 2446/l; test: In vitro antifungal activity, MIC by microdilution (NCCLS M27-A); details: CL
[7] = system: Enterococcus sp. J 14365/08; test: Screen against bacteria, MIC/IC80; type: cell-based; details: EF
[8] = system: Pseudomonas aeruginosa CCM 1961; test: Screen against bacteria, MIC/IC80; type: cell-based; details: PA
[9] = system: Candida tropicalis 156; test: In vitro antifungal activity, MIC by microdilution (NCCLS M27-A); details: CT
[10] = system: Aspergillus fumigatus 231; test: as above; details: AF
[11] = system: Staphylococcus aureus CCM 4516/08; test: Screen against bacteria, MIC/IC80; type: cell-based; details: SA
[12] = system: Candida parapsilosis ATCC 22019; test: In vitro antifungal activity, MIC by microdilution (NCCLS M27-A); details: CP
[13] = system: Absidia corymbifera 272; test: as above; details: AC
[14] = system: Trichophyton mentagrophytes 445; test: as above; details: TM
[15] = system: Candida glabrata 20/l; test: as above; details: CG
[16] = system: Candida krusei E28; test: as above
[17] = system: Candida albicans ATCC 90028; test: as above
[18] = system: Staphylococcus aureus H 5996/08 Methiciline-resistant; test: Screen against bacteria, MIC/IC80; type: cell-based; details: MRSA
[19] = system: Klebsiella pneumoniae J 14368/08 ESBL-positive; test: Screen against bacteria, MIC/IC80; type: cell-based; details: KP-E

MIC/IC80 ([1]; 24 h) [µM]	MIC/IC80 ([2]; CK1, 24 h) [µM]	MIC/IC80 ([3]; 24 h) [µM]	MIC/IC80 ([4]; CA1, 24 h) [µM]	MIC/IC80 ([5]; 24 h) [µM]	MIC/IC80 ([6]; 24 h) [µM]	MIC/IC80 ([7]; 24 h) [µM]	MIC/IC80 ([8]; 24 h) [µM]	MIC/IC80 ([9]; 24 h) [µM]	MIC/IC80 ([10]; 24 h) [µM]	MIC/IC80 ([11]; 24 h) [µM]	MIC/IC80 ([12]; 24 h) [µM]	MIC/IC80 ([13]; 24 h) [µM]	MIC/IC80 ([14]; 72 h) [µM]	MIC/IC80 ([15]; 24 h) [µM]	MIC/IC80 ([1]; 48 h) [µM]	MIC/IC80 ([16]; CK2, 24 h) [µM]	MIC/IC80 ([16]; CK2, 48 h) [µM]	MIC/IC80 ([2]; CK1, 48 h) [µM]	MIC/IC80 ([3]; 48 h) [µM]	SMILES	other results
>1000	>1000	>1000	>1000	>1000	>1000	>1000	>1000	>1000	>1000	>1000	>1000	>1000	>1000	>1000						COC(=O)C(OC(=O)C[n+]1ccn(C)c1)c1ccccc1 (centres unmarked) [KG86, RS-3-methyl-1-[1-(methoxycarbonyl)-1-phenylmethoxycarbonylmethyl]imidazolium octyl sulphate]	
>1000	>1000	>1000	>1000	>1000	>1000	>1000	>1000	>1000	>1000	>1000	>1000	>1000	>1000	>1000	>1000	>1000	>1000	>1000	>1000	COC(=O)C(OC(=O)C[n+]1ccn(C)c1)c1ccccc1 (centres unmarked) [KG89, RS-3-methyl-1-[1-(methoxycarbonyl)-1-phenylmethoxycarbonylmethyl]imidazolium bromide]	MIC/IC80 ([4]; CA1, 48 h): >1000 µM; MIC/IC80 ([17]; CA2, 24 h): >1000 µM; MIC/IC80 ([17]; CA2, 48 h): >1000 µM; MIC/IC80 ([5]; 48 h): >1000 µM; MIC/IC80 ([6]; 48 h): >1000 µM; MIC/IC80 ([18]; 24 h): >1000 µM; MIC/IC80 ([18]; 48 h): >1000 µM; MIC/IC80 ([7]; 48 h): >1000 µM; MIC/IC80 ([19]; 24 h): >1000 µM; MIC/IC80 ([19]; 48 h): >1000 µM; MIC/IC80 ([8]; 48 h): >1000 µM; MIC/IC80 ([9]; 48 h): >1000 µM; MIC/IC80 ([10]; 48 h): >1000 µM; MIC/IC80 ([11]; 48 h): >1000 µM; MIC/IC80 ([12]; 48 h): >1000 µM; MIC/IC80 ([13]; 48 h): >1000 µM; MIC/IC80 ([14]; 120 h): >1000 µM; MIC/IC80 ([15]; 48 h): >1000 µM
>1000	>1000	>1000	>1000	>1000	>1000	>1000	>1000	>1000	>1000	>1000	>1000	>1000	>1000	>1000	>1000	>1000	>1000	>1000	>1000	COC(=O)[C@H](OC(=O)C[n+]1ccn(C)c1)c1ccccc1 [KG90, R-3-methyl-1-[1-(methoxycarbonyl)-1-phenylmethoxycarbonylmethyl]imidazolium bromide]	MIC/IC80 ([4]; CA1, 48 h): >1000 µM; MIC/IC80 ([17]; CA2, 24 h): >1000 µM; MIC/IC80 ([17]; CA2, 48 h): >1000 µM; MIC/IC80 ([5]; 48 h): >1000 µM; MIC/IC80 ([6]; 48 h): >1000 µM; MIC/IC80 ([18]; 24 h): >1000 µM; MIC/IC80 ([18]; 48 h): >1000 µM; MIC/IC80 ([7]; 48 h): >1000 µM; MIC/IC80 ([19]; 24 h): >1000 µM; MIC/IC80 ([19]; 48 h): >1000 µM; MIC/IC80 ([8]; 48 h): >1000 µM; MIC/IC80 ([9]; 48 h): >1000 µM; MIC/IC80 ([10]; 48 h): >1000 µM; MIC/IC80 ([11]; 48 h): >1000 µM; MIC/IC80 ([12]; 48 h): >1000 µM; MIC/IC80 ([13]; 48 h): >1000 µM; MIC/IC80 ([14]; 120 h): >1000 µM; MIC/IC80 ([15]; 48 h): >1000 µM
>1000	>1000	>1000	>1000	>1000	>1000	>1000	>1000	>1000	>1000	>1000	>1000	>1000	>1000	>1000	>1000	>1000	>1000	>1000	>1000	COC(=O)[C@@H](OC(=O)C[n+]1ccn(C)c1)c1ccccc1 [KG91, S-3-methyl-1-[1-(methoxycarbonyl)-1-phenylmethoxycarbonylmethyl]imidazolium bromide]	MIC/IC80 ([4]; CA1, 48 h): >1000 µM; MIC/IC80 ([17]; CA2, 24 h): >1000 µM; MIC/IC80 ([17]; CA2, 48 h): >1000 µM; MIC/IC80 ([5]; 48 h): >1000 µM; MIC/IC80 ([6]; 48 h): >1000 µM; MIC/IC80 ([18]; 24 h): >1000 µM; MIC/IC80 ([18]; 48 h): >1000 µM; MIC/IC80 ([7]; 48 h): >1000 µM; MIC/IC80 ([19]; 24 h): >1000 µM; MIC/IC80 ([19]; 48 h): >1000 µM; MIC/IC80 ([8]; 48 h): >1000 µM; MIC/IC80 ([9]; 48 h): >1000 µM; MIC/IC80 ([10]; 48 h): >1000 µM; MIC/IC80 ([11]; 48 h): >1000 µM; MIC/IC80 ([12]; 48 h): >1000 µM; MIC/IC80 ([13]; 48 h): >1000 µM; MIC/IC80 ([14]; 120 h): >1000 µM; MIC/IC80 ([15]; 48 h): >1000 µM

SMILES	MIC/IC80 ([1]; 24 h) [µM]	MIC/IC80 ([2]; CK1, 24 h) [µM]	MIC/IC80 ([3]; 24 h) [µM]	MIC/IC80 ([4]; CA1, 24 h) [µM]	MIC/IC80 ([5]; 24 h) [µM]	MIC/IC80 ([6]; 24 h) [µM]	MIC/IC80 ([7]; 24 h) [µM]	MIC/IC80 ([8]; 24 h) [µM]	MIC/IC80 ([9]; 24 h) [µM]	MIC/IC80 ([10]; 24 h) [µM]	MIC/IC80 ([11]; 24 h) [µM]	MIC/IC80 ([12]; 24 h) [µM]	MIC/IC80 ([13]; 24 h) [µM]	MIC/IC80 ([14]; 72 h) [µM]	MIC/IC80 ([15]; 24 h) [µM]	MIC/IC80 ([1]; 48 h) [µM]	MIC/IC80 ([16]; CK2, 24 h) [µM]	MIC/IC80 ([16]; CK2, 48 h) [µM]	MIC/IC80 ([2]; CK1, 48 h) [µM]	MIC/IC80 ([3]; 48 h) [µM]	other results
CCCCCCCCOS(=O)(=O)[O-].COC(=O)[C@@H](OC(=O)Cn1cc[n+](C)c1)c1ccccc1 [KG88, S-3-methyl-1-[1-(methoxycarbonyl)-1-phenylmethoxycarbonylmethyl]imidazolium octyl sulphate]	>1000	>1000	>1000	>1000	>1000	>1000	>1000	>1000	>1000	>1000	>1000	>1000	>1000	>1000	>1000	>1000	>1000	>1000	>1000	>1000	MIC/IC80 ([4]; CA1, 48 h): >1000 µM; MIC/IC80 ([17]; CA2, 24 h): >1000 µM; MIC/IC80 ([17]; CA2, 48 h): >1000 µM; MIC/IC80 ([5]; 48 h): >1000 µM; MIC/IC80 ([6]; 48 h): >1000 µM; MIC/IC80 ([18]; 24 h): >1000 µM; MIC/IC80 ([18]; 48 h): >1000 µM; MIC/IC80 ([7]; 48 h): >1000 µM; MIC/IC80 ([19]; 24 h): >1000 µM; MIC/IC80 ([19]; 48 h): >1000 µM; MIC/IC80 ([8]; 48 h): >1000 µM; MIC/IC80 ([9]; 48 h): >1000 µM; MIC/IC80 ([10]; 48 h): >1000 µM; MIC/IC80 ([11]; 48 h): >1000 µM; MIC/IC80 ([12]; 48 h): >1000 µM; MIC/IC80 ([13]; 48 h): >1000 µM; MIC/IC80 ([14]; 120 h): >1000 µM; MIC/IC80 ([15]; 48 h): >1000 µM
